{"source": "paper PMC6586287", "about": "“Blocking transmembrane219 protein signaling inhibits autophagy and restores normal cell death” (PLoS ONE, 2019)", "key": {"[1]": {"assay": "fluorescence anisotropy control binding to empty nanodisc", "procedure": "Reconstituted TM219 into 13 nm nanodisc and labeling of our purified calmodulin or IGFBP3 (R&D systems) with BODIPY-TRM-X-succinimidyl ester dye were described previously. […] Serial dilution of the TM219 short cytoplasmic peptide (1pM-10mM) was used. Fluorescence anisotropy assays were done in triplicates and data represent an average of three independent experiments. Each sample was run in triplicates and an average of 60 readings was used for calculation. Binding constants (KDs) or inhibition constant (Ki) were determined with Origin 7 (OriginLab) by fitting the data as described previously."}, "MDA-MB231 cells": {"tested_on": "MDA-MB231 cells", "assay": "pHLIP-Cy3 insertion, fluorescence microscopy, MDA-MB231 cells in 2D and 3D culture", "assay_type": "cell-based, human", "conditions": "2D (3 days) and 3D (0.5% low melting agarose, 5 days) culture; 6 h at 37°C in DMEM buffered with PBS", "procedure": "A- MDA-MB231 cells were grown in a complete DMEM medium for 3 days or in 0.5% low melting agarose in complete medium for 5 days were treated with phLIP-Cy3 peptide in DMEM buffered with PBS for 6 hour at 37°C. Growth media were replaced with completed DMEM medium buffered with carbonate. Cells were imaged for insertion of the peptide. […] Nuclei of the cells were stained with Hoechst stain (blue) B-Cells pretreated with pHLIP-TM219 peptide or pHLIP peptide alone for 5 days in 0.5% low melting agarose in DMEM complete media supplemented with 1 μM IGFBP3. The peptides were mixed with DMEM buffered with PBS and added to the spheroids grown in low melting agarose. After 6 hours, the media were replaced with completed DMEM media buffered with carbonate pH 7.2. Cells were incubated for additional 9 days at 37°C in a CO2 incubator. […] Living cells were assessed by Hoechst dye stain (Blue)."}, "MCF7 cells": {"tested_on": "MCF7 cells", "assay": "pHLIP-Cy3 insertion into cell membrane, fluorescence microscopy, MCF7 cells", "assay_type": "cell-based, human", "conditions": "pH 7.4 or pH 5.5, 5 min", "procedure": "Fig 6 TM219 short cytoplasmic protein tail peptide disrupts the interaction between calmodulin and TM219 protein. […] As the concentration of the free peptide increased, the changes in FP signal decreased. […] B- MCF7 cells treated with pHLIP-cy3 peptide at pH 7.4 or pH 5.5 for 5 minutes. Cells were fixed and examined with fluorescence microscopy. […] Nuclei were stained with Hoechst dye (blue). C-MCF7 cells pretreated with either SCTT-pHLIP or pHLIP peptide alone were treated with 1μM IGFBP3 for 1hour in DMEM serum free medium. Cell lysates were subjected to immunoblot using anti-human phosphor-beclin1 antibody. […] TEXT PRINTED IN THE PICTURE: (A) unlabeled peptide: ki 0.02342 ± 0.001492 DOUBTS OF THE COPYIST ABOUT THIS PICTURE: Panel A, ki: no unit is printed with the value. The substance label 'unlabeled peptide' is taken from the printed x-axis title because the fit box names no substance. / Panel A: 'c 0.1 ± 0' in the fit box was left out as a fit parameter whose meaning is unclear."}, "[2]": {"tested_on": "LC3 processing in Vero cells", "assay": "LC3-II punctate staining, LC3-mRFP transfected Vero cells", "assay_type": "cell-based", "procedure": "Immunostaining was performed as described previously (44). Briefly, cells were grown on a coverslip overnight at 5×10^5 cells/ml. 1 μl of Hoechst stain (10 μg/μl) was added to the cells for 10 min at 37°C. For tracking TM219 short cytoplasmic peptide assay, we pretreated the cells with the peptides at concentration of 0, 25, or 250 nM, then added 1 μM IGFBP3 for an hour in DMEM serum free medium. Cells were fixed with 4% paraformaldehyde and permeabilized with 1% triton x100. Cells were then blocked overnight with 10% fetal bovine serum (FBS) in PBS. Finally, cells were stained with streptavidin conjugated to Alex555 (Thermofisher Scientific) for 30 minutes in the same blocking buffer. For immunostaining, cells were stained with the primary antibody according to the manufacturer’s recommendation in the same blocking buffer. The cells were washed 10 times with PBS. Cells were blocked for 1 h with 10% FBS and then stained with secondary antibody conjugated to fluorescence dye (Thermofisher Scientific). As controls, we used secondary antibodies alone. Cells were washed 10 times with PBS and mounted with fluoromount G (Microscopic Science) before examination.\nWe stained the intact cellular mitochondria using TMRM dye according to the provider recommendations (Thermofisher Scientific). To evaluate the cell membrane permeability in 3D culture, we used membrane impermeable dye propodeum iodide (PI), and the membrane permeable dye (Hoechst dye) to stain the cell nuclei according to the manufacturer recommendations (Thermofisher Scientific). For autophagy efflux assay, we used chloroquine (Sigma-Alderish) (CQ) at final concentration of 200 μM as described previously. Collected images were analyzed with ImageJ software."}, "Vero cells": {"tested_on": "Vero cells", "assay": "DIC microscopy of internal vacuoles, Vero cells", "assay_type": "cell-based", "conditions": "wild type versus TM219 knockout Vero cells; 1 μM IGFBP3, 1 h, serum free"}, "[3]": {"tested_on": "cytosolic calcium in MCF7 cells", "conditions": "independent on IGF or heparin; ref [55]; cited from earlier work", "text": "After that we compared the effects of IGFBP3 on elevation of intracellular calcium in these cells. […] However, no sign ..."}, "[4]": {"tested_on": "TM219 complex (calmodulin, CaMKII) in MCF7 cells", "assay": "immunopurification of TM219 complex, anti-CaMKII / anti-calmodulin immunoblot, MCF7 cells", "assay_type": "cell-based, human", "conditions": "1 μM IGFBP3, versus untreated and normal mouse antibody beads"}, "[5]": {"tested_on": "cytosolic calcium in MCF7 cells", "assay": "cytosolic calcium, colorimetric kit, MCF7 cells", "assay_type": "cell-based, human", "conditions": "1 μM IGFBP3, 5 min, serum free", "procedure": "We used a colorimetric kit to measure the increase in the cytosolic calcium in MCF7 cells according to the provider recommendations (Abcam). MCF7 cells were grown in completed DMEM medium at density of 5x10^5 cells/ml in 6 well plates. We compared the effects of 1μM IGFBP3 on the wild type, TM219 knockout and untreated MCF7 cells after 5 minutes in serum free medium. As a positive control we used […] ionomycin (Thermofishter Scientific). As a negative control we pretreated MCF7 cells with […] BAPTA for 30 minutes (Thermofisher Scientific). Experiments were run in triplicate."}, "[6]": {"tested_on": "TM219-calmodulin complex in THP1 cells", "assay": "co-immunoprecipitation of TM219 complex, anti-calmodulin immunoblot, THP1 cells", "assay_type": "cell-based, human", "conditions": "1 μM IGFBP3, 1 h, serum free", "procedure": "For immunoprecipitation of TM219 complex, we treated 6X10^6 THP1 cells grown in Roswell park memorial institute 1640 medium (PRIM) without serum with 1 μM IGFBP3 for 1 hour. Cells were lysed with immunoprecipitation buffer (1% NP-40, 150 mM NaCl, and 50 mM Tris pH 8.4 in the presence of 2 X protease inhibitors (Roche)). Crosslinking of mouse anti-TM219 antibodies to protein A-Sepharose was performed as previously described. Briefly, 1 mg of the antibody was incubated with 1 ml protein A-Sepharose beads (Thermofisher scientific), with continuous mixing at 4°C for 2 h. The beads were then centrifuged and washed five times with PBS and once with 200 mM sodium borate, pH 9. Equal volumes of 40 mM dimethylsuberimidate (Thermofisher scientific) in 200 mM sodium borate were mixed with the beads, and the suspension was incubated, with continuous mixing, at room temperature for 30 min. The reaction was terminated by addition of equal volumes of 400 mM ethanolamine, and the sample was incubated for an additional 30 min. The beads were packed into a 1-cm-diameter column (Bio-RAD) and washed three times with 2 bed volumes of PBS and once with 4 bed volumes of 100 mM glycine-HCl at pH 2.4 to remove non-cross-linked antibodies. Finally, the cross-linked antibody beads were washed with PBS until the pH reached 7 and stored at 4°C in PBS containing 0.02% sodium azide. […]"}, "[7]": {"tested_on": "phospho-Beclin1 in MCF7 cells", "assay": "Beclin1 phosphorylation / autophagy immunoblot, MCF7 cells", "assay_type": "cell-based, human", "conditions": "1 μM IGFBP3, 1 h, serum free; wild type versus TM219 knockout; anti-phospho-beclin1, anti-LC3", "procedure": "For phosphorylation assay of Beclin1 protein, we treated 6x10^6 MCF7 cells grown in DMEM serum free medium with 1 μM IGFBP3. Lysates were prepared in RIPA buffer in presence of 2X protease and phosphatase inhibitors (Thermofisher Scientific). Lysates were clarified by centrifugation at 10,000 rpm for 30 minutes at 4°C. Finally, the blotted membranes were probed with anti-TM219, LC3, calmodulin, phospho-beclin1, or β-actin. To quantify the ratio between LC3-II and LC3-I, we used an image densitometry method using ImageJ software."}}, "note": "Entries after “also recorded” stand apart in the source; their conditions may differ.", "data": [{"compound": "calmodulin", "values": [{"measurement": "binding of calmodulin to empty nanodisc", "setting": "[1]; empty nanodisc 0-100 μM, 1 mM calcium chloride, 1 μM IGFBP3", "result": "No specific binding was detected; also recorded: No specific binding was observed"}]}, {"compound": "AEQNPIYWARYADWLFTTPLLLLDLALLVDADEGTC-s-s-C(cy3) [pHLIP-cy3]", "values": [{"measurement": "insertion into plasma membrane of MDA-MB231 cells", "setting": "MDA-MB231 cells", "result": "insertion of pHLIP-cy3 peptide into the plasma membrane of MAD-MB231 in both two dimension and three dimension cell cultures"}, {"measurement": "insertion into plasma membrane of MCF7 cells", "setting": "MCF7 cells", "result": "Staining of the cells with red dye indicates insertion of pHLIP-cy3 into the cell membrane of MCF7 cells"}]}, {"compound": "CCN(CC)CCCC(C)Nc1ccnc2cc(Cl)ccc12", "note": "(centres unmarked) [chloroquine, reference compound]", "values": [{"measurement": "LC3-II punctate accumulation with chloroquine", "setting": "[2]; 200 μM chloroquine plus 1 μM IGFBP3", "result": "this punctate stain was accumulated in the cytoplasm"}, {"measurement": "LC3-II punctate accumulation with chloroquine", "setting": "[2]; 200 μM chloroquine plus 1 μM IGFBP3, listed as CQ", "result": "accumulates LCII positive vesicles in the cytoplasm of Vero cells"}]}, {"compound": "Insulin-like growth factor binding protein 3 [IGFBP3]", "values": [{"measurement": "internal vacuoles", "setting": "Vero cells", "result": "TM219 wild type Vero cells demonstrated larger internal vacuoles after treatment with IGFBP3 compared to TM219 knockout Vero cells; also recorded: wild type Vero cells showed larger internal vacuoles"}, {"measurement": "intracellular calcium release in MCF7 cells (previous studies)", "setting": "[3]", "result": "activates intracellular rapid release of intracellular calcium in MCF7 cells"}, {"measurement": "LC3 processing (LC3-II punctate staining)", "setting": "[2]; Vero cells with LC3-mRFP, 1 μM IGFBP3, 1 h, serum free, mean +/- SEM plotted", "result": "significant increase in processing of LC3; also recorded: significant increase in number of LCII punctate stain"}, {"measurement": "association of calmodulin and CaMKII with TM219 complex", "setting": "[4]", "result": "TM219 protein recruits calmodulin and calmodulin dependent kinase II after treatment with IGFBP3; also recorded: Purified proteins from cells treated with IGFBP3 reacted specifically with anti-CaMKII antibody"}, {"measurement": "binding of labelled IGFBP3 to empty nanodisc", "setting": "[1]; empty nanodisc 0-2000 nM, fluorescence anisotropy", "result": "No specific binding was detected"}, {"measurement": "cytosolic calcium, TM219 knockout versus wild type", "setting": "[5]", "result": "no significant difference"}, {"measurement": "cytosolic calcium", "setting": "[5]; % of ionomycin reading, BAPTA reading subtracted", "result": "triggered elevation of the cytosolic calcium in MCF7 independent of TM219 receptor; also recorded: relatively higher signal of calcium relative to untreated MCF7 cells"}, {"measurement": "TM219-calmodulin complex formation (co-immunoprecipitation)", "setting": "[6]", "result": "immunoprecipitation with anti-TM219 consistently brought down calmodulin"}, {"measurement": "autophagy activation in MCF7 cells", "setting": "[7]", "result": "activates autophagy in MCF7 cells"}]}]}
